The values that follow come from patent US6174907A, “Benzimidazole compounds containing 1,2,4-triazole ring, and compositions and methods of use containing the same” (Fuji Photo Film Co., Ltd., priority 1995, dated 2001).

For series [1], the system named is mouse peritoneal macrophages. The experiment in a line: Cytotoxicity examined microscopically (morphological alteration of cells). Type of series: cell-based, mouse (female ICR). The settings on record: 5 μM, observed microscopically.
Series [2] deals with rabbits fed with high cholesterol food. Nature of the series: Suppression of formation of arterial sclerosis lesions (cholesterol deposited on inner vascular walls of aortas). Type of series: in vivo, NZW rabbits (male). The settings on record: 100 mg/kg/day/rabbit in feed; aortas removed seven weeks after the administration. An excerpt:
Activity of the compounds of the present invention for suppressing the formation of arterial sclerosis lesions (in vivo experiment)
(§1) By using rabbits fed with high cholesterol food, effect on lipid in blood and activity of the compounds of the present invention for suppressing formation of arterial sclerosis lesions were examined. Hypercholesterolemia condition was created by feeding NZW rabbits (male) weighing about 2 kg with high cholesterol feed (100 g/day/rabbit of OCR-4 [Oriental Yeast]+0.5% cholesterol+0.5% olive oil) for seven days. A group consisting of three rabbits was continuously administered with a compound of the present invention (Compound B16 or Compound B49) for seven days by mixing the compound with the above feed at an amount of 100 mg/kg/day/rabbit. Another group consisting of three rabbits was fed solely with the high cholesterol feed and used as a control group.
Aortas were removed seven weeks after the administration, and cholesterol deposited on inner vascular walls was quantified. In the groups administered with Compound B16 or Compound B49, the amount of deposited cholesterol was reduced by 40% and 45% compared with control, respectively.

For series [3] the test system is unchanged. The experiment in a line: Effect on lipid in blood, GOT and GPT in rabbits fed with high cholesterol food. Type of series: in vivo, NZW rabbits (male). The note with it: 100 mg/kg/day/rabbit in feed; for Difference in total cholesterol compared with the control group / Increase of HDL cholesterol / Reduction of LDL cholesterol compared with the control group: seven days, high cholesterol feed; for GOT / GPT: during the experiment.
Source text: as §1, with “Activity of the compounds of the present invention for suppressing the formation of arterial sclerosis lesions (in vivo experiment) By” for “By”, “group. Blood was collected from parotid veins with one week interval, and total cholesterol, LDL cholesterol, HDL cholesterol, GOT, and GPT were measured.” for “group.”

Series [4] has as its system mouse peritoneal macrophages. Nature of the series: Suppression of foaming of macrophages (cholesterol ester synthesis) in vitro. Type of series: cell-based, mouse (female ICR). The settings on record: Mus musculus, Peritoneal macrophage, 5 μM, 16 hours, relative to control as 100%, smaller value = more potent suppression, read-out: Rate of CE synthesis (%).

The structures appear in SMILES notation. Read-outs that look alike come from different tables or passages of the source.

On to `c1cnc(SCCCCCSc2nc3ccccc3[nH]2)nc1` [Compound B49], for which the Cytotoxicity entry in series [1] (Table 4) is “Not observed”. The “Reduction of the amount of deposited cholesterol on inner vascular walls of aortas compared with control” value in series [2] is on record as 45%. In addition, in series [3], the “Difference in total cholesterol compared with the control group” value is “no difference in total cholesterol was observed”, the “Increase of HDL cholesterol” value was found to be 30%, the “Reduction of LDL cholesterol compared with the control group” value was determined as 30% and the GOT entry is given as “No abnormal value was observed”. In series [3], the GPT result is listed as “No abnormal value was observed”. For the same compound, the activity at 5 µM in series [4] (Table 4) is 11%.

On to `Cc1nnc(SCCCCCSc2nc3ccccc3[nH]2)s1` [Compound B16], for which the Cytotoxicity entry in series [1] (Table 4) is listed as “Not observed”. Also, the “Reduction of the amount of deposited cholesterol on inner vascular walls of aortas compared with control” value in series [2] came to 40%. For the same compound, in series [3], the “Difference in total cholesterol compared with the control group” value was “no difference in total cholesterol was observed”, the “Increase of HDL cholesterol” value came out at 30%, the “Reduction of LDL cholesterol compared with the control group” value is given as 35% and the GOT entry is “No abnormal value was observed”. Also, the GPT entry in series [3] is given as “No abnormal value was observed”. Further, in series [4] (Table 4), the activity at 5 µM was found to be 9.3%.

For `c1ccc(-c2ccc3oc(SCCCCCSc4nc5ccccc5[nH]4)nc3c2)cc1` [Compound A39, 1-(2'-benzimidazolylthio)-5-(2"-(5"-phenylbenzoxazolyl)thio)pentane], the Cytotoxicity result in series [1] (Table 3) is “Not observed”. Moreover, in series [4] (Table 3), the activity at 5 µM amounted to 24%.

As for `CCOC(=O)c1ccc2[nH]c(SCCCCCSc3ccccn3)nc2c1` [Compound B36], in series [1] (Table 4), the Cytotoxicity entry is on record as “Not observed”. For the same compound, the activity at 5 µM in series [4] (Table 4) was 26%.

Turning to `Clc1cc2nc(SCCCCCCCCSc3nc4ccccc4[nH]3)[nH]c2cc1Cl` [Compound A13, 1-(2'-(5',6'-dichlorobenzimidazolyl)thio)-8-(2"-benzimidazolylthio)octane], the Cytotoxicity entry in series [1] (Table 3) is “Not observed”. Moreover, the activity at 5 µM in series [4] (Table 3) was 58%.

Turning to `CCCCCCCCn1nnnc1SCCCCCSc1nc2ccccc2[nH]1` [Compound B11], in series [1] (Table 4), the Cytotoxicity entry was “Not observed”. In series [4] (Table 4), the activity at 5 µM was determined as 18%.

As for `Cn1c(CCCCCSc2nc3ccccc3n2C)nc2ccccc21` [Compound A26, 1-methyl-2-(5-(2'-(1-methylbenzimidazolyl)thio)pentyl)benzimidazole], the Cytotoxicity entry in series [1] (Table 3) is “Not observed”. Besides, in series [4] (Table 3), the activity at 5 µM worked out at 35%.

On to `COc1ccc2[nH]c(SCCCCCSc3nc4cc(C)ccc4[nH]3)nc2c1` [Compound A4, 1-(2'-(5'-methoxybenzimidazolyl)thio)-5-(2"-(5"-methylbenzimidazolyl)thio)pentane], for which, in series [1] (Table 3), the Cytotoxicity entry is recorded as “Not observed”. Also, in series [4] (Table 3), the activity at 5 µM worked out at 41%.

In the case of `Cc1cc2nc(SCCCCCSc3nc4cc(Cl)c(Cl)cc4[nH]3)[nH]c2cc1C` [Compound A15, 1-(2'-(5',6'-dichlorobenzimidazolyl)thio)-5-(2"-(5",6"-dimethylbenzimidazolyl)thio)pentane], the Cytotoxicity entry in series [1] (Table 3) is on record as “Not observed”. In addition, the activity at 5 µM in series [4] (Table 3) came to 36%.

In the case of `CNS(=O)(=O)c1ccc2c(c1)nc(SCCCCCSc1ccccn1)n2C` [Compound B66], the Cytotoxicity entry in series [1] (Table 4) was “Not observed”. The activity at 5 µM in series [4] (Table 4) turned out to be 52%.

Turning to `CSc1nc(C)cc(SCCCCCSc2nc3ccccc3[nH]2)n1` [Compound B56], the Cytotoxicity entry in series [1] (Table 4) is “Not observed”. In series [4] (Table 4), the activity at 5 µM was 18%.

Take `c1ccc(-c2noc(SCCCCCSc3nc4ccccc4[nH]3)n2)cc1` [Compound B27]: in series [1] (Table 4), the Cytotoxicity result is reported as “Not observed”. Also, in series [4] (Table 4), the activity at 5 µM is 15%.
